# Measured values as given in patent US20220040255A1, “CHEMOTHERAPEUTIC REMODELING OF THE GUT MICROBIOME” (THE SCRIPPS RESEARCH INSTITUTE, priority 2018, published 2022).
# Where a SMILES comes first, the peptide text is derived from it. [ ]: non-standard residue; d: D form.
# What was measured:
# [1] = tested on: cytokines/chemokines in liver tissue; test: cytokines/chemokines in liver tissue by Luminex assay; type: in vivo, LDLr−/− mice
# Excerpt: Interleukin-1β (IL-1β) is a proinflammatory cytokine central to the inflammatory response […] the interlukin-6 (IL-6) signaling pathway. […] In addition to IL-1β, a pathogenic role of IL-la in vascular inflammation and atherosclerosis has been described.
# [2] = tested on: total bile acid; test: bulk (total) bile acid quantification; type: in vivo, LDLr−/− mice; details: 2-wk treatment
# Procedure: Bulk bile acid quantification. Total bile acids were measured enzymatically using a total bile acid assay kit (Cell Biolabs) following manufacturer's instruction. Feces were obtained between 0900-1100 am from non-fasted animals after a 2-wk treatment period. The extraction of bile acid from feces was performed as described in Yu et al., J. Biol. Chem. 275, 15482-15489, 2000. In brief, the feces from individual mice were collected, weighed, and agitated in 75% ethanol in an ultrasonic bath at 50° C. for 2 h. After centrifugation at 3,500 g for 10 min, the supernatant was transferred to a new tube and diluted with 25% PBS. The total bile acid level was then determined enzymatically using the kit. For plasma samples, the plasma was diluted 1:10 with 25% PBS prior to enzymatic bile acid measurement using the kit.
# [3] = liver tissue, WD-fed LDLr−/− mice, 4 weeks of treatment
structure (smiles),measurement,setting,value
CC(C)C[C@@H]1NC(=O)[C@@H](Cc2c[nH]c3ccccc23)NC(=O)[C@H](CCCNC(=N)N)NC(=O)[C@@H](CCC(=O)O)NC(=O)[C@H](CCC(N)=O)NC(=O)[C@@H](CCC(=O)O)NC(=O)[C@H](CCCNC(=N)N)NC(=O)[C@@H](Cc2c[nH]c3ccccc23)NC1=O [c[wLwReQeR]] (cyclo([dW]L[dW]R[dE]Q[dE]R)),"several cytokine and chemokine levels, including IL-1β, IL-1α, IL-6, and TNF-α","[1]; liver tissue from WD animals, treated vs vehicle",significant reductions
same,CCL2 (MCP-1) level,[1]; [3],470 ± 150 pg/g tissue
same,CCL3 (MIP-1a) level,[1]; [3],200 ± 130 pg/g tissue
same,CCL4 (MIP-1b) level,[1]; [3],3000 ± 1800 pg/g tissue
same,CXCL10 (IP-10) level,[1]; [3],1200 ± 380 pg/g tissue
same,Eotaxin level,[1]; [3],1200 ± 390 pg/g tissue
same,G-CSF level,[1]; [3],380 ± 150 pg/g tissue
same,GM-CSF level,[1]; [3],86 ± 37 pg/g tissue
same,IFNg level,[1]; [3],37 ± 16 pg/g tissue
same,IL1a level,[1]; [3],1100 ± 190 pg/g tissue
same,IL1b level,[1]; [3],430 ± 100 pg/g tissue
same,IL2 level,[1]; [3],80 ± 24 pg/g tissue
same,IL3 level,[1]; [3],31 ± 15 pg/g tissue
same,IL4 level,[1]; [3],13 ± 8.4 pg/g tissue
same,IL6 level,[1]; [3],260 ± 55 pg/g tissue
same,IL7 level,[1]; [3],230 ± 110 pg/g tissue
same,IL9 level,[1]; [3],670 ± 160 pg/g tissue
same,IL10 level,[1]; [3],160 ± 58 pg/g tissue
same,IL13 level,[1]; [3],7.3 ± 5.9 pg/g tissue
same,IL-12p40 level,[1]; [3],200 ± 78 pg/g tissue
same,IL-12p70 level,[1]; [3],270 ± 140 pg/g tissue
same,IL-15 level,[1]; [3],960 ± 370 pg/g tissue
same,IL-17 level,[1]; [3],55 ± 16 pg/g tissue
same,KC level,[1]; [3],190 ± 20 pg/g tissue
same,LIF level,[1]; [3],7.1 ± 4 pg/g tissue
same,LIX level,[1]; [3],290 ± 240 pg/g tissue
same,M-CSF level,[1]; [3],200 ± 70 pg/g tissue
same,MIG level,[1]; [3],1200 ± 650 pg/g tissue
same,RANTES level,[1]; [3],71 ± 61 pg/g tissue
same,TNFa level,[1]; [3],77 ± 21 pg/g tissue
same,VEGF level,[1]; [3],8.2 ± 3.4 pg/g tissue
same,"total bile acid in the feces, peptide-treated vs. control WD-fed mice",[2]; feces,two-fold higher
same,"total bile acid in the plasma, peptide-treated vs. control WD-fed mice",[2]; plasma,three-fold lower
